In PMC4542628, “Lys39-Lysophosphatidate Carbonyl Oxygen Interaction Locks LPA1 N-terminal Cap to the Orthosteric Site and partners Arg124 During Receptor Activation” (Scientific Reports, 2015):

Legend:
LPA1 K7.36A mutant = molecular target: T1, LPA1 K7.36A mutant (Homo sapiens, UniProt Q92633, K294A); experiment: Intracellular calcium mobilization in B103 cells expressing K7.36A LPA1 mutant; type: cell-based; details: at the highest concentration tested
T1 construct: expressed in transfected cells; host or cells: B103 rat neuroblastoma cells, electroporated with pCAGGS-HA-LPA1 mutant
T1 sequence (Q92633 whole entry K294A): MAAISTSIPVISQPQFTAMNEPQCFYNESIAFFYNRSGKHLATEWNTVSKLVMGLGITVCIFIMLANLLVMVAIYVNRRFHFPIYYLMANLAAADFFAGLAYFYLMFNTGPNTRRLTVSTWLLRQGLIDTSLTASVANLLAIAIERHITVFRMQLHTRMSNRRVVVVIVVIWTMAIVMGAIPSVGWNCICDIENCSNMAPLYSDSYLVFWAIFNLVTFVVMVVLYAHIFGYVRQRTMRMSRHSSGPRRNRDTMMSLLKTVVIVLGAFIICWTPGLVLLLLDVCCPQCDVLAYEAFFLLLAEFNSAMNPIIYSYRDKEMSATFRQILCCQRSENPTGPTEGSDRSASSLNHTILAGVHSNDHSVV
Excerpt: (§1) PCXN2.1-LPA1, an expression vector for human LPA1, was kindly provided by Dr. T. Shimizu (NCGM, Tokyo) (40). The mutants of LPA1 (Lys39Ala, Arg115Ala, Arg124Ala, Asp191Ala and Lys294Ala) were generated by a two-step PCR. The cDNA of the 5′ portion of LPA1 was amplified by PCR using a forward primer containing XhoI site and reverse primers containing the sequence encoding the mutated amino acids. The 3′ portion was also amplified with forward primers containing the mutated sequence and a reverse primer containing NotI and BglII sites. All cDNAs of the LPA1 variants were amplified using a mixture of the two PCR products together with the XhoI and NotI-containing primers. The resulting 1.0 KB products were cloned into a pCRII-Topo vector for sequence analysis. The cDNA of LPA1 mutants were cut out from pCRII-Topo by XhoI and NotI, and ligated into the XhoI/NotI sites of pCAGGS-HA (41), to generate pCAGGS-HA-LPA1 mutants.
(§2) B103 rat neuroblastoma cells that lack LPA response were cultured in DMEM containing 10% fetal bovine serum at 37 °C in a 5% CO2 atmosphere. […] After 30 min, 20 μl of the LPA species at defined concentration was added followed by an immediate recording of the fluorescence using the Functional Drug Screening System/μCell (Hamamatsu Photonics K.K., Hamamatsu city, Japan). The fluorescence intensity was described as fura-2 ratio (tested value/basal value) or fold induction. […]

wildtype LPA1 = molecular target: T2, wildtype LPA1 (Homo sapiens, UniProt Q92633); experiment: Intracellular calcium mobilization in B103 cells expressing wild-type LPA1; type: cell-based
T2 construct: expressed in transfected cells; host or cells: B103 rat neuroblastoma cells (lack LPA response), electroporated
T2 sequence (Q92633 whole entry): as the sequence (Q92633 whole entry K294A) above, with A294K counted along it
Excerpt: as §1, §2

LPA1 = system: LPA1; design: method as in earlier work; details: acting on LPA1; ref 31 (Williams et al.); cited from earlier work

| Compound | intracellular calcium mobilization, Emax levels of the wildtype (LPA1 K7.36A mutant) | potency compared with LPA (18:1), dose-response curve (wildtype LPA1) | EC50 (LPA1) |
| --- | --- | --- | --- |
| CCCCC/C=C\C/C=C\C/C=C\C/C=C\CCCC(=O)OC[C@@H](O)COP(=O)(O)O.N [LPA 20:4, 1-arachidonoyl-2-hydroxy-sn-glycero-3-phosphate (ammonium salt)] | ≈ 60% | – | – |
| alkyl glycerol phosphate 18:1 [AGP (18:1)] | – | right-shift in the dose-response curve | 1.5 µM |
